Test results as given in the NIST ThermoML archive (doi:10.1016/j.jct.2016.05.014).
“And” between values parts separate entries of the source, which are not always exact repeats. Identical values can stand only once. Numbers after ± are expanded uncertainties.

Assays:
[1] = Crystal
[2] = molar heat capacity at constant pressure; details: 101.33 kPa, Crystal, Small sample (50 mg) DSC

SMILES	mass density ([1]; 296 K, 101.33 kPa, X-ray diffraction) [kg/m3]	Normal melting temperature ([1]; visual observation) [°C]	molar heat capacity at constant pressure ([2]; 283.15 K)	molar heat capacity at constant pressure ([2]; 288.15 K)	molar heat capacity at constant pressure ([2]; 293.15 K)	molar heat capacity at constant pressure ([2]; 298.15 K)	molar heat capacity at constant pressure ([2]; 303.15 K)	molar heat capacity at constant pressure ([2]; 308.15 K)	molar heat capacity at constant pressure ([2]; 313.15 K)	molar heat capacity at constant pressure ([2]; 318.15 K)	molar heat capacity at constant pressure ([2]; 323.15 K)	molar heat capacity at constant pressure ([2]; 328.15 K)	molar heat capacity at constant pressure ([2]; 333.15 K)
CCCCC(C#N)(Cn1cncn1)c1ccc(Cl)cc1 (centres undefined)	1238 ± 6	70.30 ± 0.58	343.21 ± 9.5 J/K/mol and 340.09 ± 9.4 J/K/mol	349.62 ± 9.7 J/K/mol and 349.73 ± 9.7 J/K/mol	357.56 ± 9.9 J/K/mol and 356.25 ± 9.9 J/K/mol	364.3 ± 10 J/K/mol and 362.78 ± 10 J/K/mol	370.21 ± 10 J/K/mol and 369.3 ± 10 J/K/mol	375.66 ± 10 J/K/mol and 375.82 ± 10 J/K/mol	381.03 ± 11 J/K/mol and 382.35 ± 11 J/K/mol	386.69 ± 11 J/K/mol and 388.87 ± 11 J/K/mol	393.03 ± 11 J/K/mol and 395.39 ± 11 J/K/mol	400.42 ± 11 J/K/mol and 401.92 ± 11 J/K/mol	408.44 ± 11 J/K/mol and 409.23 ± 11 J/K/mol
c1ccc2ccccc2c1 [naphthalene]			158.4 ± 3.9 J/K/mol	161.6 ± 4 J/K/mol	164.8 ± 4.1 J/K/mol	168 ± 4.2 J/K/mol	171.2 ± 4.2 J/K/mol	174.5 ± 4.3 J/K/mol	177.8 ± 4.4 J/K/mol	181.1 ± 4.5 J/K/mol	184.5 ± 4.6 J/K/mol	187.9 ± 4.7 J/K/mol	191.3 ± 4.7 J/K/mol
